Assay results taken from patent US20110178171A1, “COMPOUNDS FOR CANCER THERAPY” (China Medical University, priority 2010, published 2011).
pIC50: −log10 of the molar value.

Legend:
[1] = test system: PC3 cells; test: MTT growth inhibition assay, PC3; type: cell-based, human; conditions: PC3, androgen-independent prostate adenocarcinoma
Protocol: (§1) The LNCaP (androgen-sensitive), PC3 (androgen in-dependent), human prostate cancer and normal human fibroblast 3T3 were obtained from American Type Culture Collection (Manassas, Va.) were maintained with RPMI 1640 medium containing 10% FBS and […] each of penicillin and streptomycin at […] in a humidified atmosphere with 5% CO2.
(§2) The viability of the cells after treated with various chemicals was evaluated using MTT assay preformed in triplicate (Mosmann T. 1983. Rapid colorimetric assay for cellular growth and survival: application to proliferation and cytotoxicity assays”. Journal of immunological methods. 65 (1-2): 55-63). Briefly, the cancer cells (5×10^3) were incubated in 96-well plates containing […] of the culture medium. Cells were permitted to adhere for 12-18 h then washed with phosphate buffered saline (PBS). Solutions were always prepared fresh by dissolving 0.2% DMSO or K8 in culture medium and added to various kind of tumor. After 48 h of exposure, K8 containing medium was removed, washed with PBS and replaced by fresh medium. The cells in each well were then incubated in culture medium with […] MTT for 4 h. After the medium were removed, […] of DMSO and […] of glycine buffer (0.1 M glycine, 0.1 M NaCl, pH 10.5) were added to each well. Absorbance at 570 nm of the maximum was detected by a PowerWave X Microplate ELISA Reader (Bio-TeK Instruments, Winoski, Vt.). The absorbance for DMSO treated cells was considered as 100%. The results were determined by three independent experiments.
Cytotoxicities of Z-K8 (Isochaihulactone) on LNCaP (AR-dependent), and PC3 (AR-independent) tumor cell line were examined in the manner described above. […]

[2] = test system: lung cancer cell line A549; test: MTT growth inhibition assay, A549; type: cell-based, human; conditions: A549, lung adenocarcinoma
Protocol: (§3) The results were determined by three independent experiments.
(§4) Besides, the above assay was also conducted on gastric cancer cell line NCI-N87, liver cancer cell line HepG2 and J5, lung cancer cell line A549, and oral cancer cell line OECM-1.

[3] = test system: LNCaP cells; test: MTT growth inhibition assay, LNCaP; conditions: for pIC50: LNCaP, androgen-dependent prostate adenocarcinoma
Protocol: as §1, §2
Cytotoxicity of K8 (Isochaihulactone) on LNCaP cells was examined in the manner described above. The cells were treated with KS (Isochaihulactone), its Z-form, or its E-form of different concentrations ranging from 2.5 to 20 μM for 24 h.
Cytotoxicities of Z-K8 (Isochaihulactone) on LNCaP (AR-dependent), and PC3 (AR-independent) tumor cell line were examined in the manner described above. The cells were treated with the Z- or E-form K8 (Isochaihulactone) of different concentrations ranging from 0.3125 to 5 μM for 24 h.

[4] = test system: liver cancer cell line HepG2; test: MTT growth inhibition assay, HepG2; type: cell-based; conditions: HepG2, hepatocarcinoma
Protocol: as §3, §4

[5] = test system: liver cancer cell line J5; test: MTT growth inhibition assay, J5; type: cell-based; conditions: J5, hepatocarcinoma
Protocol: as §3, §4

[6] = test system: LNCaP xenografts; test: Antitumor activity in vivo, LNCaP xenograft; set-up: species or system mice; conditions: for Tumor growth volume (mm^3): 30 mg/kg s.c. days 0-4
Protocol: Xenograft mice as a model system to study cytotoxicity effect of isochaihulactone in vivo: the implantation of cancer cells (LNCaP) were carried out similarly to previous reports. Female congenital athymic BALB/c nude (nu/nu) mice were purchased from National Sciences Council (Taipei, Taiwan) and all procedures were performed in compliance with the standard operating procedures of the Laboratory Animal Center of China Medical University (Taichung, Taiwan). All experiments were carried out using 6-8-week old mice weighing 18-22 g. The animals were s.c. implanted with 1×10^7 cell sinto the back of mice. When the tumor reached 80-120 mm3 in volume, animals were divided randomly into control and test groups consisting of six mice per group (day 0). Daily s.c. administration of z-K8, dissolved in a vehicle of 20% Tween 80 in normal saline (v/v) was performed from days 0 to 4 far from the inoculated tumor sites (>1.5 cm). The control group was treated with vehicle only. The mice were weighed three times a week up to days 21-28 to monitor the effects and the same time the tumor volume was determined by measurement of the length (L) and width (W) of the tumor. The tumor volume at day n (TVn) was calculated as TV (mm3)=(L×W^2)/2. The relative tumor volume at day n (RTVn) versus day 0 was expressed according to the following formula: RTVn=TVn/TV0. Tumor regression (T/C(%)) in treated versus control mice was calculated using: T/C(%)=(mean RTV of treated group)/(mean RTV of control group)×100. Xenograft tumors as well as other vital organs of treated and control. The results are shown in Tables 6 and 7 and FIGS. 6 and 7.
Assays were carried out to examine the inhibition of human xenografts growth in vivo by isochaihulactone. Briefly, LNCaP tumor-bearing mice were administered s.c. with vehicle control, 30 mg/kg E-K8, and Z-K8 respectively on days 0-4 for 5 days. The volumes of the tumors were measured. […] Scale bars, […]. Data represent means W S.D. of tumor volume at each time
Assays were carried out to examine the inhibition of human xenografts growth in vivo by Z-K8. Again, LNCaP tumor-bearing mice were administered s.c. with vehicle control, Z-K8 15 mg/kg on days 0-4 for 5 days. The volumes of the tumors were measured. […] Scale bars, […]. Data represent means W S.D. of tumor volume at each time point.

[7] = test system: oral cancer cell line OECM-1; test: MTT growth inhibition assay, OECM-1; type: cell-based; conditions: OECM-1, oral squamous cell carcinoma
Protocol: as §3, §4

[8] = test system: LNCaP cells; test: Cell cycle analysis by flow cytometry; type: cell-based, human; conditions: 20 nM
Protocol: The cell cycle was determined by flow cytometry with DNA staining to reveal the total amount of DNA. Approximately 5×10^5 of cells were incubated in various concentration of isochaihulactone for the indicated time. Cells were harvested by treating the cells with trypsin/EDTA. The cells were collected, washed with PBS, fixed with cold 70% ethanol overnight, and then stained with a solution containing […] PI, 10 mg/ml RNase A, and 0.1% Triton X-100 for 1 h in the dark. The cells will then pass through FACScan flow cytometer (equipped with a 488-nmargon laser) to measure the DNA content. The data was obtained and analyzed with CellQuest 3.0.1 (Becton Dickinson, Franklin Lakes, N.J.) and ModFitLT V2.0 software. The results are shown Table 4 and FIG. 4.
Assays were carried out to examine the effect of Z-K8 in inducing G2/M phase arrest and apoptosis in LNCaP cells. Briefly, the cells were treated with different concentrations of Z-K8 (ranging from 0.25 to 2 μM) for 24 h. The cell cycle analysis was done according to the method described above. As shown in FIG. 4 and Table 4, Z-K8 induced cell cycle G2/M arrest in LNCaP cells.

COc1cc(/C=C2\C(=O)OC[C@@H]2Cc2ccc3c(c2)OCO3)cc(OC)c1OC [K8, isochaihulactone]
pIC50 [1]: < 4.00
pIC50 [2]: 4.73
Viability (%) ([3]; 2.5 µM): 67.4%
Viability (%) ([3]; 5 µM): 43.6%
Viability (%) ([3]; 10 µM): 40.9%
Viability (%) ([3]; 20 µM): 21.0%
pIC50 [3]: 5.37
pIC50 [4]: < 4.70
pIC50 [5]: 4.67

COc1cc(/C=C2/C(=O)OCC2Cc2ccc3c(c2)OCO3)cc(OC)c1OC (racemic) [E-K8]
pIC50 [1]: < 4.70
pIC50 [2]: < 4.00
Tumor growth volume (mm^3) ([6]; day 1 after administration): 0 mm^3
Tumor growth volume (mm^3) ([6]; day 4 after administration): 118.0 mm^3
Tumor growth volume (mm^3) ([6]; day 7 after administration): 137.1 mm^3
Tumor growth volume (mm^3) ([6]; day 10 after administration): 205.7 mm^3
Tumor growth volume (mm^3) ([6]; day 13 after administration): 313.7 mm^3
Tumor growth volume (mm^3) ([6]; day 16 after administration): 427.4 mm^3
Tumor growth volume (mm^3) ([6]; day 19 after administration): 504.7 mm^3
Tumor growth volume (mm^3) ([6]; day 22 after administration): 633.5 mm^3
Tumor growth volume (mm^3) ([6]; day 25 after administration): 658.6 mm^3
Tumor growth volume (mm^3) ([6]; day 28 after administration): 834.9 mm^3
Tumor growth volume (mm^3) ([6]; day 31 after administration): 894.9 mm^3
tumor growth inhibition, in words ([6]; LNCaP tumor-bearing mice, 30 mg/kg s.c. days 0-4 (FIG. 6)): tumor growth inhibition effect
Viability (%) ([3]; 2.5 µM): 86.2%
Viability (%) ([3]; 5 µM): 72.9%
Viability (%) ([3]; 10 µM): 69.8%
Viability (%) ([3]; 20 µM): 65.3%
pIC50 [3]: < 4.70
pIC50 [7]: < 6.00

CC(=O)O[C@H]1C(=O)[C@@]2(C)[C@H]([C@H](OC(=O)c3ccccc3)[C@]3(O)C[C@H](OC(=O)[C@H](O)[C@@H](NC(=O)c4ccccc4)c4ccccc4)C(C)=C1C3(C)C)[C@]1(OC(C)=O)CO[C@@H]1C[C@@H]2O [toxal, reference compound]
Cells in phase (%) G0/G1 [8]: 16.40%
Cells in phase (%) G2/M [8]: 40.23%
Cells in phase (%) S [8]: 3.95%
Cells in phase (%) Sub-G1 [8]: 11.43%
